Data: PubChem BioAssay AID248 (DTP/NCI, 2004)
Values joined by “and” are separate entries in the source; they are usually repeats but may differ in a detail not shown here. Identical values can stand only once. Inconclusive results and toxic doses are left out. No stated cut-off is given here; in the data, active means T/C of 150% or more; inactive means T/C below 125%.

Test system: L1210 leukemia ip in BDF1 mice, survival T/C
Experiment: NCI In Vivo Anticancer Drug Screen. Data for tumor model L1210 Leukemia (intraperitoneal) in B6D2F1 (BDF1) mice
Settings: endpoint: mean survival time, higher = longer survival
Outline: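 Tumor cells were implanted, animals were treated, and survival was followed. The result divides the treated measurement by the vehicle-control measurement.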

[1] = dose: 25.0 mg/kg/injection, schedule: Q01DX009 (ip), vehicle: Klucel (hydroxypropylcellulose) (HPC)
[2] = dose: 50.0 mg/kg/injection, schedule: Q01DX009 (ip), vehicle: Klucel (hydroxypropylcellulose) (HPC)
[3] = dose: 100.0 mg/kg/injection, schedule: Q01DX009 (ip), vehicle: Klucel (hydroxypropylcellulose) (HPC)
[4] = dose: 100.0 mg/kg/injection, schedule: Q04DX003 (ip), vehicle: Klucel (hydroxypropylcellulose) (HPC)
[5] = dose: 200.0 mg/kg/injection, schedule: Q04DX003 (ip), vehicle: Klucel (hydroxypropylcellulose) (HPC)
[6] = dose: 400.0 mg/kg/injection, schedule: Q04DX003 (ip), vehicle: Klucel (hydroxypropylcellulose) (HPC)
[7] = dose: 100.0 mg/kg/injection, schedule: Q04DX002 (ip), vehicle: saline with Tween-80
[8] = dose: 200.0 mg/kg/injection, schedule: Q04DX002 (ip), vehicle: saline with Tween-80
[9] = dose: 400.0 mg/kg/injection, schedule: Q04DX002 (ip), vehicle: saline with Tween-80
[10] = dose: 100.0 mg/kg/injection, schedule: Q01DX001 (ip), vehicle: carboxymethylcellulose (CMC)
[11] = dose: 200.0 mg/kg/injection, schedule: Q01DX001 (ip), vehicle: carboxymethylcellulose (CMC)
[12] = dose: 400.0 mg/kg/injection, schedule: Q01DX001 (ip), vehicle: carboxymethylcellulose (CMC)
[13] = dose: 200.0 mg/kg/injection, schedule: Q01DX009 (ip), vehicle: Klucel (hydroxypropylcellulose) (HPC)
[14] = dose: 400.0 mg/kg/injection, schedule: Q01DX009 (ip), vehicle: Klucel (hydroxypropylcellulose) (HPC)
[15] = dose: 50.0 mg/kg/injection, schedule: Q01DX001 (ip), vehicle: carboxymethylcellulose (CMC)
[16] = dose: 100.0 mg/kg/injection, schedule: Q01DX009 (ip), vehicle: saline with Tween-80
[17] = dose: 200.0 mg/kg/injection, schedule: Q01DX009 (ip), vehicle: saline with Tween-80
[18] = dose: 400.0 mg/kg/injection, schedule: Q01DX009 (ip), vehicle: saline with Tween-80
[19] = dose: 100.0 mg/kg/injection, schedule: Q01DX001 (ip), vehicle: saline
[20] = dose: 200.0 mg/kg/injection, schedule: Q01DX001 (ip), vehicle: saline
[21] = dose: 400.0 mg/kg/injection, schedule: Q01DX001 (ip), vehicle: saline

Measured: T/C

Cc1cccc(SC(=O)Nc2ccccc2C(F)(F)F)c1
inactive: [1] 103 % of control | [2] 94 % of control | [3] 97 % of control and 102 % of control | [4] 98 % of control | [5] 109 % of control | [6] 93 % of control

O=C1OC(c2cccc(Cl)c2)=N/C1=C\c1ccc(O)cc1
inactive: [7] 118 % of control | [8] 100 % of control | [9] 104 % of control

O=C1C(O)=C(c2ccc(Br)cc2)C(=O)C(O)=C1c1ccc(Br)cc1
inactive: dose: 75.0 mg/kg/injection, schedule: Q01DX001 (ip), vehicle: other 103 % of control

CC(CO)(CO)N=Cc1cc([N+](=O)[O-])ccc1O
inactive: [10] 98 % of control | [11] 98 % of control | [12] 98 % of control

Cc1ccc([N+](=O)[O-])cc1NC(=O)NCCc1ccccc1
inactive: [3] 97 % of control | [13] 87 % of control | [14] 92 % of control

CS(=O)(=O)OCCCCO
inactive: [15] 88 % of control | [10] 93 % of control | [11] 93 % of control | [12] 90 % of control

C#CC1(OCC2CN(c3ccccc3)C(=O)O2)CCCCC1 (stereo unspecified)
inactive: [16] 106 % of control | dose: 100.0 mg/kg/injection, schedule: Q04DX003 (ip), vehicle: saline with Tween-80 97 % of control | [17] 108 % of control | dose: 200.0 mg/kg/injection, schedule: Q04DX003 (ip), vehicle: saline with Tween-80 105 % of control | [18] 108 % of control | dose: 400.0 mg/kg/injection, schedule: Q04DX003 (ip), vehicle: saline with Tween-80 92 % of control

Cc1ccc(NC(=O)COc2cc(Cl)c(Cl)cc2Cl)cc1[N+](=O)[O-]
inactive: [1] 86 % of control | [2] 100 % of control | dose: 75.0 mg/kg/injection, schedule: Q01DX009 (ip), vehicle: Klucel (hydroxypropylcellulose) (HPC) 100 % of control and 92 % of control

N#C/C(=C\c1ccccc1)c1cccc(Cl)c1
inactive: dose: 100.0 mg/kg/injection, schedule: Q01DX009 (ip), vehicle: other 95 % of control | dose: 200.0 mg/kg/injection, schedule: Q01DX009 (ip), vehicle: other 87 % of control

O=[N+]([O-])c1ccc(Cl)cc1/C=N/N1CCN(/N=C/c2cc(Cl)ccc2[N+](=O)[O-])CC1
inactive: [19] 93 % of control | [20] 93 % of control | [21] 93 % of control

CC(=O)Nc1nc(C)c(CCCN(Cc2ccccc2)C(C)=O)c(=O)[nH]1
inactive: dose: 75.0 mg/kg/injection, schedule: Q01DX001 (ip), vehicle: Klucel (hydroxypropylcellulose) (HPC) 96 % of control | dose: 150.0 mg/kg/injection, schedule: Q01DX001 (ip), vehicle: Klucel (hydroxypropylcellulose) (HPC) 99 % of control | dose: 300.0 mg/kg/injection, schedule: Q01DX001 (ip), vehicle: Klucel (hydroxypropylcellulose) (HPC) 92 % of control

COCc1c(C)c(C)cc(C)c1C
inactive: [3] 96 % of control | [13] 96 % of control | [14] 91 % of control

c1ccc2c(c1)[nH]c1c2c[n+]2c3c(cccc13)CCC2
inactive: dose: 3.13 mg/kg/injection, schedule: Q01DX009 (ip), vehicle: saline 105 % of control | dose: 6.25 mg/kg/injection, schedule: Q01DX009 (ip), vehicle: saline 105 % of control | dose: 12.5 mg/kg/injection, schedule: Q01DX009 (ip), vehicle: saline 105 % of control

O=C1OCC/C1=C1\CCCO1
inactive: [16] 93 % of control | [17] 100 % of control | [18] 96 % of control

COC(=O)CCN(c1cccc(Cl)c1)S(=O)(=O)c1ccc(C)cc1
inactive: [19] 98 % of control | [20] 92 % of control | [21] 98 % of control

c1ccc(CC2(Cc3ccccc3)N=C(c3ccccc3)C(c3ccccc3)=N2)cc1
inactive: [3] 103 % of control | [4] 102 % of control | [13] 97 % of control | [5] 103 % of control | [14] 98 % of control | [6] 97 % of control

C=CCNC(=S)OCC
inactive: [7] 100 % of control | [8] 97 % of control | [9] 103 % of control

COC(=O)/C=C/C=C/c1ccc(Br)cc1
inactive: dose: 100.0 mg/kg/injection, schedule: Q04DX003 (ip), vehicle: saline 91 % of control | dose: 200.0 mg/kg/injection, schedule: Q04DX003 (ip), vehicle: saline 92 % of control | dose: 400.0 mg/kg/injection, schedule: Q04DX003 (ip), vehicle: saline 92 % of control

CC12CCC(C(=O)C1=O)C2(C)C (stereo unspecified)
inactive: [15] 121 % of control | [10] 103 % of control | dose: 100.0 mg/kg/injection, schedule: Q04DX002 (ip), vehicle: Klucel (hydroxypropylcellulose) (HPC) 99 % of control | [11] 109 % of control | dose: 200.0 mg/kg/injection, schedule: Q04DX002 (ip), vehicle: Klucel (hydroxypropylcellulose) (HPC) 96 % of control | [12] 113 % of control | dose: 400.0 mg/kg/injection, schedule: Q04DX002 (ip), vehicle: Klucel (hydroxypropylcellulose) (HPC) 89 % of control

CC1(C)N=C(N)N=C(N)N1c1cccc(Cl)c1Cl
inactive: dose: 5.0 mg/kg/injection, schedule: Q01DX009 (ip), vehicle: saline 95 % of control | dose: 10.0 mg/kg/injection, schedule: Q01DX009 (ip), vehicle: saline 104 % of control | dose: 20.0 mg/kg/injection, schedule: Q01DX009 (ip), vehicle: saline 107 % of control
